Measured values taken from ChEMBL document CHEMBL1133556, “Carbonic anhydrase inhibitors: water-soluble 4-sulfamoylphenylthioureas as topical intraocular pressure-lowering agents with long-lasting effects” (J Med Chem, 2000).
Converted amounts (≈) assume the structure as drawn.

Legend:
Carbonic anhydrase 4 = target: T1, Carbonic anhydrase 4 (Bos taurus, UniProt Q95323)
T1 sequence (Q95323 whole entry): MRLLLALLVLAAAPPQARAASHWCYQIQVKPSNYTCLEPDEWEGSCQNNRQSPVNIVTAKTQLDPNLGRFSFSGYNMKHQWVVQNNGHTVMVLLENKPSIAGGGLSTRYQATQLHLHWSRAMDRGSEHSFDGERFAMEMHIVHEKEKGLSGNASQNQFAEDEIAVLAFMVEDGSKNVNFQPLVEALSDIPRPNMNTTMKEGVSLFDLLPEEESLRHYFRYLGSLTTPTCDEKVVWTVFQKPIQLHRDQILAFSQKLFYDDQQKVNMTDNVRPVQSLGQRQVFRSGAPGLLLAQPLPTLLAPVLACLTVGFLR
Description: Inhibitory activity against bovine carbonic anhydrase IV from lung microsomes

Carbonic anhydrase 1 = Carbonic anhydrase 1 (Homo sapiens, UniProt P00915)
Carbonic anhydrase 1, sequence (P00915 whole entry): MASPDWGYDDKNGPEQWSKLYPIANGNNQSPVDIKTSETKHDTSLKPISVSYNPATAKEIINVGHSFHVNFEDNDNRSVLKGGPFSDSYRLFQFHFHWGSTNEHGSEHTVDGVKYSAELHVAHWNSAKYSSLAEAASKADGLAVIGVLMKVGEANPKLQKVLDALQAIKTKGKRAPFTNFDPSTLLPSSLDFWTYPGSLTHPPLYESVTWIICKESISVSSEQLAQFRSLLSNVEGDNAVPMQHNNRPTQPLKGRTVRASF
Description: Inhibitory activity against human recombinant carbonic anhydrase I

Carbonic anhydrase 2 = Carbonic anhydrase 2 (Homo sapiens, UniProt P00918)
Description: Inhibitory activity against human recombinant carbonic anhydrase II

Oryctolagus cuniculus [1] = species on record: Oryctolagus cuniculus
Description: Tested in vivo for lowering IOP (Intraocular Pressure)in Normotensive Rabbits at pH 6.5 after treatment with 50 uL, activity at 90 minutes

Oryctolagus cuniculus [2] = assay: Tested in vivo for lowering IOP (Intraocular Pressure)in Glaucomatous Rabbits at pH 7.0 after treatment with 50 uL, activity at 90 minutes; format: functional
physchem = conditions: buffer, pH 7.4
Description: Solubility (in uM) in pH 7.40 at 25 degree C

Oryctolagus cuniculus [3] = species on record: Oryctolagus cuniculus; remark: listed apart in the source
Description: Tested in vitro for transcorneal accession rates (corneal permeability) against cornea with no epithelium

Oryctolagus cuniculus [4] = species on record: Oryctolagus cuniculus; assay: Tested ex vivo for ocular tissue concentration against cornea after 1 hour of treatment with 50 uL; format: functional, organism-based
Oryctolagus cuniculus [5] = species on record: Oryctolagus cuniculus; remark: listed apart in the source
Oryctolagus cuniculus [6] = species on record: Oryctolagus cuniculus; remark: listed apart in the source
Oryctolagus cuniculus [7] = species on record: Oryctolagus cuniculus; assay: Tested ex vivo for ocular tissue concentration against cornea after 2 hour of treatment with 50 uL; format: functional, organism-based
Oryctolagus cuniculus [8] = species on record: Oryctolagus cuniculus; remark: listed apart in the source
[9] = octanol/water
Description: Partition coefficient (logD) (chloroform/buffer)

Oryctolagus cuniculus [10] = species on record: Oryctolagus cuniculus; assay: Tested ex vivo for ocular tissue concentration against aqueous humor after 1 hour of treatment with 50 uL; format: functional, organism-based; conditions: Eye
Oryctolagus cuniculus [11] = assay: Tested in vivo for lowering IOP (Intraocular Pressure)in Glaucomatous Rabbits at pH 7.0 after treatment with 50 uL, activity at 60 minutes; format: functional
Oryctolagus cuniculus [12] = species on record: Oryctolagus cuniculus; assay: Tested ex vivo for ocular tissue concentration against ciliary process after 2 hour of treatment with 50 uL; format: functional, organism-based; conditions: Eye
Oryctolagus cuniculus [13] = species on record: Oryctolagus cuniculus; assay: Tested ex vivo for ocular tissue concentration against ciliary process after 1 hour of treatment with 50 uL; format: functional, organism-based; conditions: Eye
Oryctolagus cuniculus [14] = species on record: Oryctolagus cuniculus; remark: listed apart in the source
Description: Tested in vitro for transcorneal accession rates (corneal permeability) against intact cornea

Oryctolagus cuniculus [15] = species on record: Oryctolagus cuniculus; assay: Tested ex vivo for ocular tissue concentration against aqueous humor after 2 hour of treatment with 50 uL; format: functional, organism-based; conditions: Eye
Oryctolagus cuniculus [16] = assay: Tested in vivo for lowering IOP (Intraocular Pressure)in Glaucomatous Rabbits at pH 7.0 after treatment with 50 uL, activity at 30 minutes; format: functional
Oryctolagus cuniculus [17] = assay: Tested in vivo for lowering IOP (Intraocular Pressure)in Normotensive Rabbits at pH 7.0 after treatment with 50 uL, activity at 90 minutes; format: functional
Oryctolagus cuniculus [18] = assay: Tested in vivo for lowering IOP (Intraocular Pressure)in Normotensive Rabbits at pH 7.0 after treatment with 50 uL, activity at 30 minutes; format: functional
Oryctolagus cuniculus [19] = assay: Tested in vivo for lowering IOP (Intraocular Pressure)in Normotensive Rabbits at pH 6.5 after treatment with 50 uL, activity at 30 minutes; format: functional
Oryctolagus cuniculus [20] = assay: Tested in vivo for lowering IOP (Intraocular Pressure)in Normotensive Rabbits at pH 6.5 after treatment with 50 uL, activity at 60 minutes; format: functional
Oryctolagus cuniculus [21] = assay: Tested in vivo for lowering IOP (Intraocular Pressure)in Normotensive Rabbits at pH 7.0 after treatment with 50 uL, activity at 60 minutes; format: functional
Oryctolagus cuniculus [22] = assay: Tested in vivo for lowering IOP (Intraocular Pressure)in Glaucomatous Rabbits at pH 7.5 after treatment with 50 uL, activity at 30 minutes; format: functional
Oryctolagus cuniculus [23] = assay: Tested in vivo for lowering IOP (Intraocular Pressure)in Glaucomatous Rabbits at pH 7.5 after treatment with 50 uL, activity at 90 minutes; format: functional
Oryctolagus cuniculus [24] = assay: Tested in vivo for lowering IOP (Intraocular Pressure)in Glaucomatous Rabbits at pH 7.5 after treatment with 50 uL, activity at 60 minutes; format: functional
Oryctolagus cuniculus [25] = assay: Tested in vivo for lowering IOP (Intraocular Pressure)in Normotensive Rabbits at pH 7.0. after treatment with 50 uL, activity at 90 minutes; format: functional

Compound | Ki (Carbonic anhydrase 4) | Ki (Carbonic anhydrase 1) | Ki (Carbonic anhydrase 2) | Delta IOP (Oryctolagus cuniculus [5]) | Delta IOP (Oryctolagus cuniculus [6]) | Delta IOP (Oryctolagus cuniculus [8]) | further results
NS(=O)(=O)c1ccc(N/C(S)=N\Cc2ccccn2)cc1 | 76 nM | 135 nM | 45 nM |  |  |  | Delta IOP (Oryctolagus cuniculus [1]): 0.6 mmHg
NC(=O)CC(/N=C(\S)Nc1ccc(S(N)(=O)=O)cc1)C(=O)O (stereo not given) | 11 nM | 27 nM | 6 nM | 7 mmHg | 6 mmHg | 10.1 mmHg | Delta IOP (Oryctolagus cuniculus [2]): 15.5 mmHg; solubility (physchem): 51 mM (≈ 17.7 mg/mL); kin (Oryctolagus cuniculus [3]): 7800 h⁻¹; Concentration (Oryctolagus cuniculus [4]): 141 µM; Concentration (Oryctolagus cuniculus [7]): 54 µM; logD [9]: 1.759; Concentration (Oryctolagus cuniculus [10]): 285 µM; Delta IOP (Oryctolagus cuniculus [11]): 13 mmHg; Concentration (Oryctolagus cuniculus [12]): 12 µM; Concentration (Oryctolagus cuniculus [13]): 47 µM; kin (Oryctolagus cuniculus [14]): 3100 h⁻¹; Concentration (Oryctolagus cuniculus [15]): 43 µM; Delta IOP (Oryctolagus cuniculus [16]): 10 mmHg
NS(=O)(=O)c1ccc(N/C(S)=N\c2ccccc2C(=O)O)cc1 | 29 nM | 55 nM | 13 nM | 4.3 mmHg |  | 8 mmHg | Delta IOP (Oryctolagus cuniculus [17]): 0.9 mmHg
NS(=O)(=O)c1ccc(N/C(S)=N\CCCC(=O)O)cc1 | 33 nM | 45 nM | 11 nM |  | 2.9 mmHg | 3.1 mmHg | Delta IOP (Oryctolagus cuniculus [18]): 5 mmHg
NS(=O)(=O)c1ccc(N/C(S)=N\CCc2c[nH]cn2)cc1 | 56 nM | 92 nM | 33 nM |  |  |  | Delta IOP (Oryctolagus cuniculus [19]): 3 mmHg; Delta IOP (Oryctolagus cuniculus [20]): 0.3 mmHg; Delta IOP (Oryctolagus cuniculus [1]): 0 mmHg
NS(=O)(=O)c1ccc(N/C(S)=N/C(CO)C(=O)O)cc1 (stereo not given) | 15 nM | 28 nM | 3 nM | 8 mmHg | 9.1 mmHg |  | solubility (physchem): 73 mM (≈ 23.3 mg/mL); kin (Oryctolagus cuniculus [3]): 8000 h⁻¹; Delta IOP (Oryctolagus cuniculus [21]): 9.5 mmHg; logD [9]: 1.459; Delta IOP (Oryctolagus cuniculus [22]): 10.4 mmHg; kin (Oryctolagus cuniculus [14]): 3400 h⁻¹; Delta IOP (Oryctolagus cuniculus [23]): 17.5 mmHg; Delta IOP (Oryctolagus cuniculus [24]): 15 mmHg
NCCCCC(/N=C(\S)Nc1ccc(S(N)(=O)=O)cc1)C(=O)O (stereo not given) | 55 nM | 97 nM | 12 nM | 0 mmHg |  |  | Delta IOP (Oryctolagus cuniculus [21]): 0 mmHg; Delta IOP (Oryctolagus cuniculus [25]): 0 mmHg
